According to patent publication US8063035B2, “Triazolyl aminopyrimidine compounds” (Eli Lilly and Company, priority 2007, dated 2011):
Read-outs that look alike come from different tables or passages of the source.

What was measured:
[1] = test system: HeLa Cells; experiment: pHH3(S10), Mitotic Cells, and DNA Content Assays; assay type: cell-based; conditions: Homo sapiens, 23 hours exposure
Method: HeLa Cells are plated at 200 cells/well in 96 well […] BIOCOAT™ plates, and are incubated in MEM (Minimum Essential Medium) with 10% FBS (Fetal Bovine Serum) in 37° C., 5% CO2 for 24 hours. Cells are treated by adding compound (in 0.25% DMSO) to the medium, dosing at 10 points across the range 0.5 μM to 0.0098 μM. After 23 hours exposure to the compounds, cells are fixed, for example with the PREFER™ fixative for 30 min then are permeablized with 0.1% TRITON® X100 in phospate buffered saline (PBS) solution for 15 min. Cells are washed 3 times with PBS then digested with 50 μg/mL RNAse. Primary antibody, anti-phosphohistone H3 Serine 10, is added at 1:500 in PBS with 1% bovine serum albumin (BSA) to the cells over night at 4° C. After 3 PBS washes, cells are incubated with Alexa488 labeled secondary antibody for 1 hour at room temperature. Again they are washed 3 times with PBS, and then 15 μM propidium iodide is added for 30 min to stain nuclei. Fluorescence Plates are scanned with ACUMEN EXPLORER™ [Laser-scanning fluorescence microplate cytometer (comprising of 488 nm argon ion laser excitation and multiple photomultiplier tube detection), manufactured by TTP LABTECH LTD] to measure phosphohistone H3, DNA content and mitotic cells as measured by DNA condensation. Image analysis are based on cellular fluorescent signals for identifying cells in different subpopulations. pHH3(S10) positive cells are identified by mean intensity at 500-530 nm above the threshold. Total intensity at 655-705 nm from propidium iodide/DNA is used to identify individual cells (cells with DNA content from 2N to 4N) and subpopulations in cell cycle (2N cells, 4N cells). Peak intensity at 575-640 nm is used to identify DNA condensation that is used as the marker to identify mitotic cells among 4N cells. Assay outputs are percentage of each identified subpopulations, % pHH3, % 2N, % 4N, % mitotic and total cell number. The EC50 is determined by curve fitting to a four parameter logistic for each output using ACTIVITY BASE™.

[2] = test system: HCT116 cells; experiment: Antiproliferative Assay; assay type: cell-based; conditions: Homo sapiens, HCT-116, 72 hours, Alamar Blue, n=2, MSR 3.1
Method: The effects of compounds on cell proliferation can be determined using cells and cell proliferation methods well-known in the art (Robert C. Squatrito et al., Gynecological Oncology, 58, 101-105, (1995)). For example, HCT116 cells, which may be obtained from the American Type Culture Collection, may be seeded at ˜2000 cells/well in 96-well plates and allowed to attach overnight in a humidified CO2 incubator at 37° C. Following the 20-24 hour incubation, half-log serially diluted compounds are added and the plates are returned to the incubator. After an appropriate length of exposure (e.g., 72 hours), cell proliferation is estimated using well-known methods. In one method, 10 μL of a tetrazolium salt, such as Alamar Blue™ is added to the cell plates.

[3] = biological target: T1, Plk1-Flag-His6 tag fusion enzyme (Homo sapiens, UniProt P53350); experiment: Plk1 Inhibition Assay; assay type: biochemical; conditions: absolute IC50, 5.0 μM ATP, GST-Cdc25c (1-206) substrate, 60 min; MSR 3.6
T1 construct: FLAG (C); His6 (C); made in house; host or cells: Sf9 insect cells (baculovirus, pFastBac), treated with okadaic acid before harvest; The substrate was made in E. coli BL21 (pGEX-2T)
Description: Human Plk1 cDNA may be directly linked at one of its termini with a polynucleotide sequence expressing a His6 tag, such as the C-terminal FLAG-His6 tag, and inserted into an appropriate expression vector, such as a pFastBac™ vector (Invitrogen) and transfected into an appropriate system, such as baculovirus similar to what has been reported by Yue-Wei Qian, et al., Science, 282, 1701 (1998) for xPlkk1. If a viral expression system is used, then the virus (e.g., baculovirus bearing a Plk1-Flag-His6 tag polynucleotide construct) is infected into a culture of a suitable host cell, such as Sf9 cells. […]
Plk1 kinase reactions contain Plk1-Flag-His6 tag fusion enzyme (0.2 ng/μL) in a buffer containing 50 mM HEPES, pH 7.3, 1.0 mM dithiothreitol, 5.0 μM ATP, 10 mM MgCl2, 0.01% TRITON® X-100, 0.4 μCi ^33P-ATP, and […] GST-Cdc25c (1-206) peptide. […] Wells are dried before addition of 40 μL of MicroScint™20 (Packard) and then counted on a Wallac MICROBETA® Jet. The percentage inhibition values from the 10-point concentration response data are subsequently analyzed, for example, using ACTIVITY BASE™ software (IDBS), using a 4-parameter logistic equation. Absolute IC50 values are calculated from the resulting curve fit.

[4] = test system: NCIH460; conditions: NCIH460 murine xenograft; cited from earlier work
[5] = in man; cited from earlier work
[6] = test system: HCT116; conditions: HCT116 murine xenograft; cited from earlier work
[7] = test system: A549; conditions: A549 murine xenograft; cited from earlier work
[8] = in man, phase II clinical trials; cited from earlier work

T1 sequence (P53350 whole entry, the tested form may be a part): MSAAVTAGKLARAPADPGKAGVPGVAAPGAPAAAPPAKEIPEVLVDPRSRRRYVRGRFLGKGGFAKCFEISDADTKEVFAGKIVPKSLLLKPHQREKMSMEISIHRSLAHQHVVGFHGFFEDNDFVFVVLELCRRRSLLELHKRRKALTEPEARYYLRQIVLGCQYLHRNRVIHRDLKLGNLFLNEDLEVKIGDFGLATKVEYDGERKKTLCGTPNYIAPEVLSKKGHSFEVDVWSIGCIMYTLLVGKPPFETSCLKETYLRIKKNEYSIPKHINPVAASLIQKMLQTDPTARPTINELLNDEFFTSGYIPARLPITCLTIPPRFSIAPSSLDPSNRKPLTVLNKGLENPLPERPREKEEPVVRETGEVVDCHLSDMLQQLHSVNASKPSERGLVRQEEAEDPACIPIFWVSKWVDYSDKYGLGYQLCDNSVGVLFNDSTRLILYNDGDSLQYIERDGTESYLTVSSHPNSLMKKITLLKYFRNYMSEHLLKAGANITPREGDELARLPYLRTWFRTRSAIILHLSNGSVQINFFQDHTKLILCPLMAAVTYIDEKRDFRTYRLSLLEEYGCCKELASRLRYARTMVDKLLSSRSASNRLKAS

Row | SMILES | EC50 ([1]; MSR 2.4, read-out: DNA content EC50) | EC50 ([1]; MSR 2.5, read-out: mitotic EC50) | EC50 ([1]; MSR 2.6, read-out: pHH3(s10) EC50) | IC50 [2] | IC50 [3] | activity in preclinical model [4] | clearance (CL) [5] | activity in preclinical model [6] | activity in preclinical model [7] | dose-limiting toxicity [8]
1 | CC(N)c1ccc(F)cc1-c1cccc2cc(-c3nc(NCCn4ccnn4)ncc3F)sc12 (racemic) [Example 57, N-(2-(1H-1,2,3-Triazol-1-yl)ethyl)-4-(7-(2-(1-amino-ethyl)-5-fluorophenyl)-benzo[b]thiophen-2-yl)-5-fluoropyrimidin-2-amine] | 40 nM | 36 nM | 37 nM | 119 nM | 11 nM | – | – | – | – | –
2 | CC[C@@H]1C(=O)N(C)c2cnc(Nc3ccc(C(=O)NC4CCN(C)CC4)cc3OC)nc2N1C1CCCC1 [BI-2536] | – | – | – | – | – | demonstrated activity | > 1000 mL/min | demonstrated activity | demonstrated activity | dose limited by myelosupression
